Measured values taken from patent US7767398B2, “Means and methods for diagnosing and treating affective disorders” (Affectis Pharmaceuticals AG, priority 2003, dated 2010).

Experiments:
P2X7R [1] = biological target: T1, P2X7R (Rattus norvegicus, UniProt Q64663); settings: concentrations of 10 to 300 μM; cited from earlier work
T1 sequence (Q64663 1-595): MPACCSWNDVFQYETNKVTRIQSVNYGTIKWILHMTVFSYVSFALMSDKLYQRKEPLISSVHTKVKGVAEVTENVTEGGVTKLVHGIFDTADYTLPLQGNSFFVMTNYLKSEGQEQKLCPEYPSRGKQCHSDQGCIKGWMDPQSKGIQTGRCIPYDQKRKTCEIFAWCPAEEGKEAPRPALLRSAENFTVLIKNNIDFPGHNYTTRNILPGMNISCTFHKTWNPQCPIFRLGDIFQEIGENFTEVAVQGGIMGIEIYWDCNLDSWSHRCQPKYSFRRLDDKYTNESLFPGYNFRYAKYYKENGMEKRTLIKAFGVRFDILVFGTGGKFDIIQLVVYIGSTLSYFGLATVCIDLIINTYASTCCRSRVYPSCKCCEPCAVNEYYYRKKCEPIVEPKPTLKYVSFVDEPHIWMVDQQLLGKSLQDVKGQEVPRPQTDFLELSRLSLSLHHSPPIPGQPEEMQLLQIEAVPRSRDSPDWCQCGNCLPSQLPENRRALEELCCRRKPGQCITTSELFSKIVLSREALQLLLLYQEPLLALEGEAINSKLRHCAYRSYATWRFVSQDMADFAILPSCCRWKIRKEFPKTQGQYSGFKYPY

P2X7R [2] = settings: cited from earlier work
other P2X receptors = settings: cited from earlier work
mice = assay: Porsolt's forced swim test; assay type: in vivo, mouse
Experimental: Further validation of role of P2X7R in affective disorders was performed by examining its expression pattern in response to stress and treatment with antidepressant drugs. […] In parallel, a control group of mice was given vehicle solution (i.e. without paroxetine) using the same treatment regiment while a second control group of mice was left undisturbed and stress-free (i.e. untreated) during the same period of the experiments. At the end of the long-term treatment, part of the mice of each experimental group were tested in the dark/light box (test of anxiety behaviour) and in the Porsolt's forced swim test (test of depressive-like behaviour) to confirm the effectiveness of the treatment (FIG. 5). […] The other part of the experimental groups (i.e. mice without test experience) were decapitated, brains rapidly removed and frozen at −80° C. until usage.
The effects of P2X7R inhibition on depressive-like behaviour was assessed 24 hours and 48 hours after infusion of siRNA, control or vehicle according to the standard test paradigm, the Porsolt's forced swim test (Porsolt et al., Arch. Int. Pharmacodym. 229 (1977), 327-336; Porsolt, Rev. Neurosci. 11 (2000), 53-58). […] Compared to vehicle application, no influence of control double stranded RNA (5′-[…]-3′) on floating behaviour (passive stress coping) was detected. […] This interpretation becomes moreover evident when the effects of antidepressants on passive stress coping behaviour in the forced swim test are visualized (FIG. 5). Passive stress coping behaviour increased after acute intrahippocampal injection (bilateral, dentate gyrus) of siRNA targeting P2X7R. The Porsolt's forced swim test is a standard test used to assess the effectiveness of antidepressants and it has been proven by many studies that the test is selectively sensitive for these effects, given that the right animal model is used. The paradigm has been widely used to test pharmaceutical compounds and to validate animal models of depression, which show an increase in passive behaviour as do the mice where P2X7R has been inhibited (siRNA).
The forced swim test is a standard test that measures primary stress-induced reductions in avoidance or escape, termed behavioural despair. The test is used to determine the effectiveness of antidepressants, test new pharmaceutical compounds and validate animal models of depression (Porsolt et al., Arch. Int. Pharmacodym. 229 (1977), 327-336; Porsolt, Rev. Neurosci. 11 (2000), 53-58; Rénéric et al., Behav. Brain Res. 136 (2002), 521-532; Page et al., Psychopharmacology 165 (2003), 194-201; Kelliher et al., Psychoneuroendocrinology 28 (2003), 332-347). The test consists of placing a mouse for a period of 5 minutes into a glass cylinder containing water. Under such circumstances, the mouse cannot touch the bottom of the cylinder and is thus forced to swim. Time, latency and frequency of struggling versus floating are scored as behavioural parameters. […] Increased struggling (i.e. active attempts to escape) indicates active coping behaviour that can be interpreted as an improvement of depression-like symptoms. For example, treatment with serotonergic antidepressants reduce the total time spent floating (Borsini, Neurosci. Biobehav. Rev. 19 (1995), 377-395; Redrobe and Bourin, Psychopharmacology 138 (1998), 198-206, and in parallel increases the time of active behaviour (i.e. swimming or struggling; Lucki et al., Psychopharmacology 155 (2001), 315-322).
The behaviour of individual mice was assessed using the Porsolt's forced swim test 24 hours after injection of vehicle solution, KN-62, or oATP. A pre-exposure of 5 minutes to the test was performed 15-17 minutes after administration of vehicle, KN-62, or oATP. A description of the Porsolt's forced swim test is given in example 9. […]

human P2X7R = biological target: T2, human P2X7R (Homo sapiens, UniProt Q99572); assay: Calcium entry in HT-22 cells overexpressing human P2X7R (Fluo-4 AM); assay type: cell-based; settings: 20 μM BzATP or 50 μM tenidap
T2 construct: expressed in transfected cells
T2 sequence (Q99572 1-595): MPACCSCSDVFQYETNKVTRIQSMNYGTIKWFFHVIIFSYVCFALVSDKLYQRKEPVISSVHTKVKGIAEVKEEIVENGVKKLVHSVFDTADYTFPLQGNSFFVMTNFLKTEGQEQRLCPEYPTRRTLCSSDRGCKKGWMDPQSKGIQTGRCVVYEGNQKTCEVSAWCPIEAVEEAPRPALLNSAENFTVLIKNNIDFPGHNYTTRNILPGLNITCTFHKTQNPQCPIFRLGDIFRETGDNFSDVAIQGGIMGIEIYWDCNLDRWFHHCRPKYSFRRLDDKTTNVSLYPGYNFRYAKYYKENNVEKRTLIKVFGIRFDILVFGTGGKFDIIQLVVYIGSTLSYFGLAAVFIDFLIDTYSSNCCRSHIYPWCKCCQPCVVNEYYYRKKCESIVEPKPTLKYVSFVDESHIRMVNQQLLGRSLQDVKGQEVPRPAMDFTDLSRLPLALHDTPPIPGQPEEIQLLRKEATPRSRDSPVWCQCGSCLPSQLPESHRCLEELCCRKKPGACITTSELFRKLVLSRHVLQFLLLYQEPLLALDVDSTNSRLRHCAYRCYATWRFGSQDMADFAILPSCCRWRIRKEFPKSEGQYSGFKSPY
From the text: Yet another method for identifying P2X7R agonists was devised by generating a immortalised mouse cell line that overexpresses the human P2X7R gene under the control of the human cytomegalovirus (CMV) early promoter/enhancer region. The human P2X7R cDNA was inserted into the pcDNA3.1 vector (Invitrogen) and transfected into the mouse hippocampal cell line HT-22 using Lipofectamine (Invitrogen) according to the manufacturer's specifications. One day after transfection, culture medium containing 500 μg/ml G418 was added to the cells. Resistant clones were separately isolated and cultured 14 days after applying the selection medium.
The agonistic activity of a compound was evaluated by measuring calcium entry in the cells that overexpress the human P2X7R. Cells were cultured in 96 well plates and incubated at 37° C. with 5% C02 DMEM with 10% foetal calf serum (Gibco) until they reached confluence. Cells were then loaded for one hour with 10 μM of Fluo4 AM (Molecular Probes). Fluo-4 AM is a fluorescent dye that binds to intracellular calcium. […] Agonist activity was detected by measuring an increase in calcium influx which results in increased binding to Fluo4 AM and increased fluorescence. Changes in fluorescence signal are measured using a Fluostar Optima plate reader (BMG biotech). […] Thus, both compound stimulated the activity of P2X7R which results in an influx of ions into the cells.

P2X7R [3] = assay type: in vivo, mouse
Experimental: The brains from stress-free mice were shock frozen, cut into 16 μm slices and fixed with paraformaldehyde for 5 minutes. The sections were blocked for 30 minutes at room temperature with 1:10 horse serum. All antibodies were diluted in TBST buffer (Tris-buffered saline with 0.05% Tween-20). The first antibody was used in a dilution 1:200 and incubated overnight. All washes were performed with TBST buffer. As a secondary antibody, an anti-goat IgG biotinylated (Vector Laboratories) was used and detection was performed using the streptavidin-biotin-horse-radish peroxidase complex system (Vector Laboratories) in combination with diaminobencidine. Slides were counterstained with toluidine blue using standard procedures. The same procedure in the absence of the primary antibody was performed as a negative control. As a positive control to test the Preservation of the tissue was verified with an antibody specific for the protein Patched1 (Santa Cruz Biotechnology). Patched1 was used as positive control since it stains all relevant brain structures and is not affected by stress or antidepressants.
At the end of the experiment, the mice were sacrificed and the brains were examined to confirm the location and efficiency of the siRNA injections. For this purpose the brains were cut into sections and the slides were stained by immunohistochemistry using the above mentioned protocols. […]

[4] = 100 nM KN-62 or 10 μM oATP, 1 μl each side, dentate gyrus, 24 hours after injection, DBA/201a mice

Q: With `CC(C)NCC(O)COc1cccc2ccccc12` (racemic) [DL-propanolol] as the compound, how does the “opening of the cation channel activity of P2X7R” value (P2X7R [1]) read?
A: without affecting

Q: What about the “pore-forming activity of P2X7R” value (P2X7R [1]) of the same compound?
A: inhibit the pore-forming activity

Q: Which “levels of ATP required to achieve activation of P2X7R” value (P2X7R [2]) does the source give for `Nc1ncnc2c1ncn2[C@@H]1O[C@H](COP(=O)(O)OP(=O)(O)OP(=O)(O)O)[C@@H](O)[C@H]1O` [ATP] here?
A: > 1 mM

Q: What about the “ATP concentrations at which other P2X receptors activate” value (other P2X receptors) of the same compound?
A: ≤ 100 µM

Q: With `CC(C)NC[C@@H](O)COc1cccc2ccccc12` [D-propanolol] as the compound, how does the “opening of the cation channel activity of P2X7R” value (P2X7R [1]) read?
A: without affecting

Q: What about the “pore-forming activity of P2X7R” value (P2X7R [1]) of the same compound?
A: inhibit the pore-forming activity

Q: For `CN([C@@H](Cc1ccc(OS(=O)(=O)c2cccc3cnccc23)cc1)C(=O)N1CCN(c2ccccc2)CC1)S(=O)(=O)c1cccc2cnccc12` [KN-62, 1-(N,O-bis[5-isoquinolinesulphonyl]-N-methyl-L-tyrosyl)-4-phenylpiperazine], which “active escape attempts (time, frequency, latency of struggling) in the forced swim test” value (mice; [4]) is on record?
A: no changes

Q: And the “passive behaviour (time, frequency, latency of floating) in the forced swim test” value (mice; [4])?
A: no changes

Q: Which results are given for `CC(CCc1ccccc1)NCC(O)c1ccc(O)c(C(N)=O)c1` (stereo not drawn) [labetolol]?
A: opening of the cation channel activity of P2X7R (P2X7R [1]): without affecting; pore-forming activity of P2X7R (P2X7R [1]): inhibit the pore-forming activity

Q: Which “passive stress coping behaviour (floating) in the forced swim test” value (mice; paroxetine by gavage, 10 mg/kg bodyweight twice per day, 28 days, male mice) does the source give for `Fc1ccc([C@@H]2CCNC[C@H]2COc2ccc3c(c2)OCO3)cc1` [paroxetine] here?
A: decreased

Q: For `NC(=O)N1C(=O)/C(=C(\O)c2cccs2)c2cc(Cl)ccc21` [tenidap, 5-chloro-2,3-dihydro-2-oxo-3-(2-thienylcarbonyl)-indole-1-carboxamide], which “calcium influx (Fluo-4 AM fluorescence intensity)” value (human P2X7R) is on record?
A: rapid increase in fluorescence intensity

Q: For “P2X7R specific siRNA: double stranded siRNA, 5′-GUGGGUCUUGCACAUGAUCTT-3′ and 5′-GAUCAUGUGCAAGACCCACTT-3′ annealed (chemistry not given here)”, which “floating behaviour (passive stress coping) in the forced swim test” value (mice; intrahippocampal bilateral (dentate gyrus), 0.1 nmol/μl, 1 μl per side, 24 hours and 48 hours after infusion) is on record?
A: significant increase in passive behaviour

Q: What about the “local inflammation or infiltration at the hippocampus” value (P2X7R [3]; mouse, in vivo) of the same compound?
A: did not produce any sign of local inflammation or infiltration

Q: And the “inhibition of P2X7R protein expression” value (P2X7R [3]; siRNA injected near the dentate gyrus, compared to vehicle or control double stranded RNA)?
A: 80%
